# According to patent publication US6696495B2, “Treatment of disorders secondary to organic impairments” (Snowden Pharmaceuticals, LLC, priority 1998, dated 2004):
# Where two headings read alike, the source gives them in different places.
# Tests used:
# [1] = tested on: Sexual Gender Choice Change; assay: Case history 7, Sibutramine Patient No. 99; assay type: in vivo, human; conditions: sibutramine 10 mg every morning; person
# Heroin Craving and Abuse = assay type: in vivo, human
# Description: 21. Relief of Heroin Craving and Abuse (Problem No. 12) Sibutramine Patient No. 165
# A single person was introduced to heroin by snorting when they were particularly stressed with the anger and pain of losing a boyfriend. They had always had difficulty recovering from pain, anger and loss but the heroin rapidly made them feel “normal”. They quickly moved to the intravenous route and reached a maximum intake of 5 bags per day (approximately $100/day in cost) for the next 6 months when they were discovered to have charged large amounts on their charge cards. They were then hospitalized in a drug detoxification hospital for three weeks but soon relapsed after discharge. After their second round of treatment they were referred to the care of a psychiatrist (the inventor herein). The patient described constant, unrelenting cravings for heroin and expressed that it would be “next to impossible” to remain free of the drug for any length of time. […] Out of desperation, the dose was increased to 15 mg in the AM and within an hour they noted a marked change. […] They now felt the “normal” feeling that heroin had given them and no longer noted any anger, hurt or distress.
# They gained 15 pounds the first 2 weeks on the 15 mg of sibutramine in the morning. This was partially relieved by adding a 5 mg dose of sibutramine in the afternoon. This effect on the heroin craving and hurt is therefore clearly separate from the FDA-approved anorexic effect of sibutramine. […] They are now working at two jobs to pay their back debts.
# [2] = tested on: Fibromyalgia—Chronic Fatigue Syndrome
# [3] = tested on: Reflex Sympathetic Dystrophy Syndrome (RSDS); Complex Regional Pain Syndrome (CRPS); assay: Case history 27; assay type: in vivo, human
# [4] = tested on: Dementia, Alzheimer's-Type; assay: Case history 24; assay type: in vivo, human
# Protocol: 24. The Symptoms Due to Dementia, Alzheimer's-Type
# person one was diagnosed with Dementia. The symptoms they suffered from included memory loss and severe confusion. They tried a variety of treatments to relieve their symptoms including choldine esterase inhibitors, antidepressants, Ritilin, and aterol. […] They were then tested off of sibutramine. […] They began to suffer from a lowered I.Q. and their memory deteriorated.
# [5] = tested on: Sexual Obsessive-Compulsive Behavior, ADD and Executive Function; assay: Case history 6, Sibutramine Patient No. 77; assay type: in vivo, human
compound,measurement,setting,value
"CC(C)CC(N(C)C)C1(c2ccc(Cl)cc2)CCC1.Cl (stereo not shown) [sibutramine, N,N-dimethyl-1-[1-(4-chlorophenyl)cyclobutyl]-3-methylbutylamine hydrochloride]",sexual interest,[1],"an increased interest in sex generally, but for the first time this interest included females as well as males"
same,“nodding out” side effects,Heroin Craving and Abuse; compared with heroin,none of the negative “nodding out” side effects
same,weight gain,Heroin Craving and Abuse; first 2 weeks on 15 mg in the morning,15 pounds
same,"anger, hurt and narcotic craving","Heroin Craving and Abuse; sibutramine 5 mg tid po, person",no relief from their anger and hurt nor from their narcotic craving
same,"anger, hurt and narcotic craving",Heroin Craving and Abuse; sibutramine 15 mg in the AM,a complete relief
same,duration of effect,Heroin Craving and Abuse; sibutramine 15 mg in the AM,extended for the whole day
same,time to marked change,Heroin Craving and Abuse; sibutramine 15 mg in the AM,an hour
same,side effects,Heroin Craving and Abuse; sibutramine 15 mg in the morning,a dry mouth and a craving for food
same,sleep,[2]; first night after sibutramine,difficulty in getting to sleep that first night
same,alertness and concentration,[2]; sibutramine 5 mg tid p.o.,became alert and able to concentrate
same,fatigue and energy,[2]; sibutramine 5 mg tid p.o.,their fatigue diminished and their energy increased substantially
same,pain points,[2]; sibutramine 5 mg tid p.o.,their pain points were still tender but that the burning sensation at these points had abated within 4 days
same,time to response after the first 5 mg capsule,[2]; sibutramine 5 mg tid p.o. Person,≤ 2 h
same,time to pain relief,"[3]; 15 mg capsule of sibutramine, child",≤ 45 min
same,toe and function,"[3]; 15 mg once a day, within 2 weeks","their toe became normal, and normal function was regained"
same,pain and symptoms after restart,[3]; back on 15 mg once a day,their pain level decreased significantly within one hour and their symptoms disappeared
same,foot pain,[3]; first 15 mg capsule,"dramatically better, completely relieved of pain"
same,symptoms off sibutramine,[3]; taken off for one day,all the previous symptoms reappeared
same,memory loss and severe confusion,"[4]; sibutramine 15 mg once a day, person one",their symptoms quickly dissipated
same,symptoms off sibutramine,[4]; taken off sibutramine,their symptoms reappeared
same,"concentration, organization, sexual obsessive-compulsive problems","[5]; sibutramine 10 mg every morning, then 5 mg three times a day by mouth, person","could concentrate, organize, and no longer had the sexual obsessive-compulsive problems"
same,duration of effects of each dose,[5]; sibutramine by mouth,about five
